Assays:
[1] = Window of opportunity trial: adverse events of intratumoral/peritumoral Copaxone injections; assay type: in vivo, human
Procedure: (§1) Subjects whose tumors were accessible for intratumoral, percutaneous injection and were planned for surgery as the primary treatment were eligible if no other treatment between initial biopsy and surgery was anticipated. During the treatment period, eligible subjects received Copaxone® at 40 mg intratumorally for up to 3 times a week and at least 48 hours apart until 24 hours before the planned surgery. This dosing regimen was consistent with the label for subcutaneous injections of Copaxone®.
This study is an open label single arm window of opportunity trial in patients with resectable solid malignancies whose planned primary treatment is surgical resection conducted at the University of Kansas Cancer Center (KUCC). The patients had to be at least 18 years old with previously untreated histologically confirmed malignant tumor that is percutaneously accessible for intratumoral injection. The injectable tumor must be at least 5 mm in diameter using standard measuring tape. Pretreatment archival tumor tissue consisting of formalin-fixed, paraffin-embedded (FFPE) tumor tissue obtained from standard of care diagnostic biopsy must be available in order to be eligible for the trial. Patients whose lesions are in close proximity to vascular structures (i.e., carotid artery or tumors close to other vital organs such as the trachea), with mucosal lesions only, with known hypersensitivity to Copaxone or with a known condition that leads to immunosuppression such as AIDS or concurrent use of immunosuppressive therapy were considered ineligible. Approval for the study was granted through the institutional review board at University of Kansas Cancer Center and all patients provided written informed consent before study entry. This trial was performed according to the Declaration of Helsinki principles. The KUCC Data and Safety Monitoring Committee (DSMC) performed the oversight of the monitoring of participant safety, conduct and scientific progress of research protocols, and the validity and integrity of the data for clinical trials.
Study treatment: Treatment was administered on an outpatient basis prior to surgery. […] Doses were administered at least 48 hours apart and the last dose given within 96 hours of surgery. This window of 96 hours was chosen because we hypothesized that any immune changes due to Copaxone may remain apparent within 96 hours. No dose adjustments, modifications or delays due to Copaxone® related toxicity were allowed.
Efforts were made to administer the full dose into the lesion, unless it was deemed not practicable by the treating investigator. Tumors were injected using a 28-gauge or smaller needle. Glatiramer acetate (Copaxone®) was thoroughly distributed within the injected tumor using a “fanning method” (to distribute the injection across several angles throughout the lesion to maximize the spread of glatiramer acetate (Copaxone®) in the tumor). The use of local anesthetic prior to Copaxone injection was allowed.
Safety Assessments: Adverse events were assessed at baseline, during Copaxone® dose administration and at time of surgery or end of treatment visit. The revised NCI Common Terminology Criteria for Adverse Events (CTCAE) version 5.0 was utilized for AE reporting and toxicity assessment. Complete blood count, chemistry and INR were done at baseline.
as §1, with “A single-arm, open-label, preoperative window of opportunity trial was conducted to evaluate the feasibility, safety, and local effects of intratumoral/peritumoral injections of Copaxone®. Subjects” for “Subjects”, “This dosing regimen was consistent with the label for subcutaneous injections of Copaxone®.” left out

[2] = in vivo; cited from earlier work
[3] = test system: Clone M3 tumors; experiment: Cloudman M3 (Clone M3) melanoma model; assay type: in vivo, DBA/2N mice; conditions: through 21 days; 2 mg GA IT x5, 10 mg/kg antibody IP x3
Procedure: Mice were randomized into treatment groups when tumors reached mean volumes of 50-80 mm^3 at Day 7.
Treatment groups consisted of vehicle control (n=7, 4% mannitol IT plus 10 mg/kg isotype control antibody IP), anti-PD1 alone (n=5, 4% mannitol IT plus 10 mg/kg anti-PD1 IP), GA alone (2 mg GA IT plus 10 mg/kg isotype control IP), or GA+anti-PD1 combination (n=5, 2 mg GA IT plus 10 mg/kg anti-PD1 IP). Intratumoral treatments were administered 5 times at a frequency of 3 times per week and 50 μL per injection beginning on Day 7. Intraperitoneal antibody was given beginning on Day 7 as well, but for a total of 3 times on a frequency of every 3-4 days.
Primary tumors were measured by caliper measurement. Tumor sizes were
calculated according to the formula (W^2×L)/2. Animals were euthanized when any tumor diameter dimension exceeded 1.8 cm.

[4] = mouse, in vivo; cited from earlier work
[5] = mouse, in vivo; cited from earlier work; remark: listed apart in the source
[6] = target: Ki-67; experiment: Ki-67 IHC of pre- and post-treatment tumor specimens; assay type: in vivo, human; conditions: for Ki67 results, biopsy: before treatment
Procedure: Ki-67 and Caspase-3 levels: To potentially detect an early signal for anti-tumoral efficacy of Copaxone® treatment, changes in the level of Ki-67 and caspase-3 before and after treatment with Copaxone® were evaluated by IHC. FFPE tumor sections from pre-and post-treatment specimens were mounted on the same slide and stained using Caspase 3 (Biocare, Pacheco, CA) and Ki-67 (MIB-1) (Dako, Carpinteria, CA).

Substance: Glatiramer acetate [GA]
- injection site reactions (overall) ([1]; intratumoral/peritumoral injection, patients): Injection site reactions were observed in and around tumor tissues
- grade 2 or higher adverse events ([1]; nine patients, Copaxone 40 mg intratumoral): no grade 2 or higher adverse events
- treatment related adverse events reported (number) ([1]; nine patients, Copaxone 40 mg intratumoral, 1-3 injections): 3
- grade of treatment related adverse events ([1]; nine patients, Copaxone 40 mg intratumoral, CTCAE v5.0): grade 1
- Injection Site Reaction ([1]; patient BCCa-Left Nasal Ala, 2 Copaxone injections): Grade 1-Mild
- Injection Site Reaction ([1]; patient BCCa-Left Nasal Ala, 2 Copaxone injections, listed as Copaxone): grade 1 injection site reaction described as pressure and itching
- Injection Site Reaction ([1]; patient BCCa-Right Flank, 3 Copaxone injections): 1st inj. - Pain
- Injection Site Reaction ([1]; patient BCCa-Right Post. Neck, 2 Copaxone injections): Grade 1-Mild
- Injection Site Reaction ([1]; patient BCCa-Right Post. Neck, 2 Copaxone injections, listed as Copaxone): grade 1 burning with injection of lidocaine
- Injection Site Reaction ([1]; patient Melanoma-Left Scalp, 2 Copaxone injections): None
- Injection Site Reaction ([1]; patient Melanoma-Mid Back, 2 Copaxone injections): None
- Injection Site Reaction ([1]; patient SCCa-Right Cheek, 1 Copaxone injection): None
- tolerability of intratumoral injections ([1]; patients): well tolerated
- systemic exposure [2]: negligible systemic exposure
- mouse survival (not exceeding 1750 mm^3 tumor volume or 1.8 cm diameter) [3]: three of five
- aggregate formation near the injection site [4]: formed spherical aggregates near the injection site
- retention of co-delivered immunostimulants at injection site [5]: retaining other HIT-IT such as CpG and PolyI: C at the intratumoral site of injection
- Ki67 results, treated ([6]; patient BCCa-Left Nasal Ala, after 2 Copaxone injections): 60%
- Ki67 results, biopsy ([6]; patient BCCa-Left Nasal Ala): 65%
- Ki67 results, treated ([6]; patient BCCa-Right Flank, after 3 Copaxone injections): 44%
- Ki67 results, biopsy ([6]; patient BCCa-Right Flank): 62%
- Ki67 results, treated ([6]; patient BCCa-Right Post. Neck, after 2 Copaxone injections): 45%
- Ki67 results, biopsy ([6]; patient BCCa-Right Post. Neck): 70%
- Ki67 results, treated ([6]; patient SCCa-Right Cheek, after 1 Copaxone injection): 45%
- Ki67 results, biopsy ([6]; patient SCCa-Right Cheek): 55%
- Ki67, marker of cell proliferation (overall) ([6]; patients, biopsy vs treated tumor): Consistent reductions in Ki67

From patent publication US20260028404A1 (UNIVERSITY OF KANSAS, priority 2022, published 2026)
